These results are taken from PubChem BioAssay (NCI).

Test systems include CAKI-1 renal; CCRF-CEM leukemia; HCT-15 colon; HOP-62 NSCLC; HOP-92 NSCLC; K-562 leukemia; OVCAR-4 ovarian; SK-MEL-2 melanoma; SN12C renal; U251 CNS.
What all share (assay): DTP human tumour cell line panel, 48 h

The structures appear in SMILES notation. Where “and” joins values, the source holds several entries; their conditions need not be identical. Identical values can stand only once.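 Cultured in 96-well plates, cells were exposed to test compound for 48 hours across five concentrations. GI50 = concentration required for 50% inhibition of growth. TGI: total growth inhibition.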 Where only a bound is given, the exact number is not on record here.

As a reminder, the TGI is the concentration giving total growth inhibition. A high value points to lower sensitivity of the cells. Consider `CC1=C(C(=O)Nc2ccccc2)C(c2ccc(N(C)C)cc2)C(C(=O)Nc2ccccc2)=C(C)N1`, for which the TGI in the assay with CAKI-1 renal was over 100 µM; in the assay on CCRF-CEM leukemia it was 57.7 µM; in the assay with HCT-15 colon, 15.3 µM; with HOP-62 NSCLC, 24.2 µM; in the assay on HOP-92 NSCLC, over 94.6 µM; in the assay with K-562 leukemia, over 69.1 µM. The concentration for total growth inhibition (TGI) was over 100 µM with OVCAR-4 ovarian, over 100 µM in the assay on SK-MEL-2 melanoma, over 100 µM in the assay on SN12C renal and over 72.4 µM in the assay with U251 CNS.
Usually GI50 stands for the concentration at which growth is held to half of that of the control. Turning to `Cc1ccc(O)cc1Nc1ccnc2ccc(S(C)(=O)=O)cc12`, the GI50 in the assay on CAKI-1 renal is 0.74 µM; with CCRF-CEM leukemia it was over 25 µM; in the assay with HCT-15 colon, 11.4 µM; in the assay with HOP-62 NSCLC, 2.35 µM; in the assay on HOP-92 NSCLC it was 0.0327 µM; with K-562 leukemia, 0.161 µM. Moreover, the GI50 is over 25 µM with OVCAR-4 ovarian, 6.91 µM with SK-MEL-2 melanoma, 2.82 µM in the assay on SN12C renal and 5.22 µM with U251 CNS. The TGI with CAKI-1 renal is 5.12 µM; in the assay with CCRF-CEM leukemia, over 25 µM; in the assay with HCT-15 colon, over 25 µM; with HOP-62 NSCLC, over 25 µM; in the assay with HOP-92 NSCLC, 0.245 µM; in the assay on K-562 leukemia it was over 25 µM. Further, the concentration for total growth inhibition (TGI) in the assay on OVCAR-4 ovarian was over 25 µM; with SK-MEL-2 melanoma, 24.9 µM; in the assay with SN12C renal, over 25 µM; in the assay with U251 CNS, over 25 µM.
For `COC1N(C2CC(O)C(CO)O2)C(=O)NC(=O)C1(F)Br` (configuration not stated), the GI50 in the assay with CAKI-1 renal is 24.9 µM; in the assay with CCRF-CEM leukemia, 27.6 µM; in the assay with HCT-15 colon, 26.3 µM; in the assay on HOP-62 NSCLC it was 8.35 µM; with HOP-92 NSCLC, 13.2 µM; with OVCAR-4 ovarian it was over 59.1 µM. In addition, the GI50 was over 50 µM in the assay on SK-MEL-2 melanoma and 15.6 µM in the assay on SN12C renal. Further, the concentration for total growth inhibition (TGI) in the assay with CAKI-1 renal was 50 µM and > 100 µM; in the assay on CCRF-CEM leukemia, 50 µM and > 75.4 µM; in the assay on HCT-15 colon, 50 µM and > 100 µM; in the assay on HOP-62 NSCLC, 50 µM and > 66.5 µM; in the assay on HOP-92 NSCLC it was 43.8 µM and > 100 µM; in the assay with K-562 leukemia it was 50 µM and > 100 µM. In addition, the TGI is over 100 µM in the assay on OVCAR-4 ovarian; over 100 µM in the assay with SK-MEL-2 melanoma; 50 µM and > 100 µM in the assay with SN12C renal; 50 µM and > 100 µM in the assay on U251 CNS.
Consider `CCN1C(=S)N(CC)C2C1NC(=S)N2/N=C/C=C/c1ccccc1OC` (configuration not stated), for which the GI50 with CAKI-1 renal is 0.101 µM; with CCRF-CEM leukemia, 0.346 µM; in the assay on HCT-15 colon, 0.267 µM; with HOP-62 NSCLC it was 0.453 µM; in the assay with HOP-92 NSCLC it was 3.56 µM; with K-562 leukemia, 0.129 µM. Also, the GI50 with OVCAR-4 ovarian was 1.1 µM; in the assay with SK-MEL-2 melanoma it was 0.615 µM; in the assay on SN12C renal it was 0.67 µM; in the assay with U251 CNS, 0.354 µM. The TGI in the assay on CAKI-1 renal is 45.9 µM; with CCRF-CEM leukemia it was over 100 µM; in the assay on HCT-15 colon it was over 100 µM; in the assay on HOP-62 NSCLC, over 100 µM; in the assay on HOP-92 NSCLC, over 76.7 µM; in the assay on K-562 leukemia it was over 72.1 µM. The TGI with OVCAR-4 ovarian is over 100 µM; in the assay with SK-MEL-2 melanoma, 56.7 µM; with SN12C renal it was 24.8 µM; in the assay with U251 CNS, 24.4 µM.
In the case of `CCN(C)c1nc(N(C)CC)c2nc(N(C)CC)nc(N(C)CC)c2n1`, the concentration for total growth inhibition (TGI) with CAKI-1 renal, in the assay with CCRF-CEM leukemia, in the assay on HCT-15 colon, in the assay on HOP-62 NSCLC, in the assay with HOP-92 NSCLC and in the assay with K-562 leukemia was over 100 µM each time. Besides, the TGI with OVCAR-4 ovarian, in the assay on SK-MEL-2 melanoma, in the assay with SN12C renal and with U251 CNS was over 100 µM each time.
Turning to `COc1ccc2sc3c(NCCCN)nc4ccccc4c3c(=O)c2c1`, the GI50 in the assay on CAKI-1 renal is 1.6 µM; in the assay on CCRF-CEM leukemia it was 1.79 µM; with HCT-15 colon it was 1.54 µM; in the assay with HOP-62 NSCLC, 1.7 µM; in the assay on HOP-92 NSCLC, 1.36 µM; in the assay with K-562 leukemia, 1.11 µM. For the same compound, the GI50 in the assay with OVCAR-4 ovarian is 1.86 µM; with SK-MEL-2 melanoma, 2 µM; in the assay with SN12C renal, 1.63 µM; in the assay with U251 CNS it was 1.62 µM. The TGI with CAKI-1 renal is 3.06 µM; with CCRF-CEM leukemia it was 3.66 µM; in the assay with HCT-15 colon it was 3.05 µM; with HOP-62 NSCLC, 3.46 µM; in the assay with HOP-92 NSCLC, 3.39 µM; with K-562 leukemia it was 3.4 µM. In addition, the total growth inhibition concentration (TGI) in the assay on OVCAR-4 ovarian turned out to be 3.56 µM; with SK-MEL-2 melanoma, 3.98 µM; with SN12C renal, 3.11 µM; in the assay with U251 CNS it was 3.19 µM.
`O=C1/C(=C/c2ccc(Cl)c(Cl)c2)CN(C(=O)CCN2CCC(=NO)CC2)C/C1=C\c1ccc(Cl)c(Cl)c1`: the GI50 with CAKI-1 renal was 0.584 µM; in the assay on CCRF-CEM leukemia, 0.292 µM; with HCT-15 colon it was 0.325 µM; in the assay with HOP-62 NSCLC, 1.26 µM; in the assay on HOP-92 NSCLC it was 1.56 µM; in the assay with K-562 leukemia, 0.191 µM. In addition, the GI50 is 0.678 µM in the assay with OVCAR-4 ovarian, 2.05 µM in the assay with SK-MEL-2 melanoma, 0.597 µM in the assay on SN12C renal and 0.268 µM in the assay on U251 CNS. In addition, the TGI came to 1.78 µM with CAKI-1 renal; 1.73 µM in the assay with CCRF-CEM leukemia; 1.16 µM in the assay on HCT-15 colon; 3.11 µM in the assay on HOP-62 NSCLC; 3.82 µM in the assay with HOP-92 NSCLC; 1.96 µM in the assay with OVCAR-4 ovarian. Further, the concentration for total growth inhibition (TGI) in the assay with SK-MEL-2 melanoma was found to be 4.3 µM; in the assay on SN12C renal, 1.73 µM; with U251 CNS, 0.818 µM.
For the compound `CC(Br)C(=O)NC(CO)C(=O)O` (configuration not stated), the total growth inhibition concentration (TGI) in the assay with CAKI-1 renal, in the assay with CCRF-CEM leukemia, in the assay on HCT-15 colon, in the assay on HOP-62 NSCLC, in the assay with HOP-92 NSCLC and in the assay on K-562 leukemia was over 100 µM each time. For the same compound, the concentration for total growth inhibition (TGI) with OVCAR-4 ovarian, with SK-MEL-2 melanoma, in the assay on SN12C renal and with U251 CNS was over 100 µM each time.
As for `Cc1nn(-c2ccc(Cl)cc2)c2ncnc(N/N=C/c3ccccc3O)c12`, the 50% growth inhibitory concentration (GI50) with CAKI-1 renal was 0.331 µM and 0.625 µM; in the assay with CCRF-CEM leukemia it was 0.342 µM and 0.23 µM; in the assay with HCT-15 colon it was 0.407 µM and 0.331 µM; in the assay with HOP-62 NSCLC, 0.538 µM and 0.322 µM; in the assay with HOP-92 NSCLC, 1.11 µM and 0.714 µM; with K-562 leukemia, 1.01 µM and 0.435 µM. Further, the GI50 was 0.436 µM and 0.237 µM in the assay on OVCAR-4 ovarian; 1.24 µM and 1.59 µM in the assay on SK-MEL-2 melanoma; 0.804 µM and 0.473 µM with SN12C renal; 0.508 µM and 0.37 µM with U251 CNS. Further, the TGI was 3.03 µM and 8.82 µM in the assay with CAKI-1 renal; over 100 µM in the assay with CCRF-CEM leukemia; over 100 µM in the assay on HCT-15 colon; 17.1 µM and 9.11 µM with HOP-62 NSCLC; 34.6 µM and 16.3 µM in the assay with HOP-92 NSCLC; over 100 µM with K-562 leukemia. Further, the TGI with OVCAR-4 ovarian is 50.9 µM and 14.2 µM; in the assay on SK-MEL-2 melanoma it was 37.2 µM and > 100 µM; in the assay with SN12C renal, over 91.7 µM; in the assay with U251 CNS, 16.8 µM and 16.2 µM.
